The results in this text go back to patent publication US6846933B1, “Antimycobacterial compounds and method for making the same” (priority 2000, dated 2005).

SMILES strings stand for the structures. ≈ marks a conversion by molar mass, not a printed value. Where two headings read alike, the source gives them in different places.

For one test, the system named is M. avium (ATCC 25291). Description: TAACF M. avium assay. Format: cell-based, Mycobacterium avium. Conditions: Mycobacterium avium.
For a further test, the system named is M. avium 101. The experiment in a line: Broth dilution MIC vs M. avium 101. Conditions: Mycobacterium avium, modified 7H10 broth, lowest concentration with no turbidity. In kind it is cell-based.
The test system of test [1] is Mycobacterium tuberculosis H37Rv (ATCC 27294). The experiment in a line: TAACF MIC / primary screen vs M. tuberculosis H37Rv (MABA or BACTEC 460). Format: cell-based. As to conditions: for MIC: Mycobacterium tuberculosis; for MIC (ug/mg): Table 1, M. tuberculosis assay.
The subject of the next test is M. tuberculosis Erdman. The experiment in a line: MIC vs M. tuberculosis Erdman. Format: cell-based. Conditions: Mycobacterium tuberculosis, Bactec, strain panel, read-out: MIC Erdman.
A further test deals with M. tuberculosis EMB-R. Description: microbe, parasite or virus in culture. Format: cell-based. Conditions: Mycobacterium tuberculosis, read-out: MIC EMB-R (ug/ml).
Another test deals with M. tuberculosis ETA-R. Description: MIC vs ETA-R M. tuberculosis. As to conditions: Mycobacterium tuberculosis, read-out: MIC ETA-R (ug/ml). In kind it is cell-based.
Another test has as its system VERO cells. The experiment in a line: Cytotoxicity in VERO cells (MTT, 72 hours). Format: cell-based. Conditions: Chlorocebus sabaeus.
The subject of test [2] is M. tuberculosis Erdman (ATCC 35801) in monolayers of mouse bone marrow macrophages. Description: Killing of M. tuberculosis Erdman in mouse bone marrow macrophages. Format: cell-based. As to conditions: Mycobacterium tuberculosis, Bone marrow macrophage, 168 h.
The test system of a further test is M. kansasii swank. The experiment in a line: Broth dilution MIC vs M. kansasii swank. In kind it is cell-based. Conditions: Mycobacterium kansasii; modified 7H10 broth, lowest concentration with no turbidity. Background: Broth dilution looks for growth in wells or tubes with falling amounts of substance.
The next test has as its system M. tuberculosis H37Rv. The experiment in a line: Minimum bactericidal concentration vs H37Rv. Conditions: Mycobacterium tuberculosis, read-out: MBC vs H37Rv (ug/ml). Format: cell-based.
Another test has as its system M. tuberculosis RMP-R. The experiment in a line: microbe, parasite or virus in culture. Format: cell-based. Conditions: Mycobacterium tuberculosis, read-out: MBC vs RMP-R (ug/ml).
The subject of the next test is M. tuberculosis INH-r. The experiment in a line: microbe, parasite or virus in culture. In kind it is cell-based. Conditions: Mycobacterium tuberculosis, read-out: MBC vs INH-r (ug/ml).
Setting [3] is: Bactec, strain panel, read-out: MIC H37Rv.
[4] abbreviates: ATCC25291, M. avium assay, BACTEC, Tables 2 and 3, read-out: MIC.

As to `CC[C@H]1OC(=O)[C@H](C)[C@@H](O[C@H]2C[C@@](C)(OC)[C@@H](O)[C@H](C)O2)[C@H](C)[C@@H](O[C@@H]2O[C@H](C)C[C@H](N(C)C)[C@H]2O)[C@](C)(OC)C[C@@H](C)C(=O)[C@H](C)[C@@H](O)[C@]1(C)O` [Clarithromycin, reference compound], the MIC in the test on M. avium (ATCC 25291) (ATCC25291, reference control, read-out: MIC Clarithromycin vs. M. avium (control in Comment column)) turned out to be 2 µg/mL (≈ 2.67 µM); in the test with M. avium 101 it was 2 µg/mL (≈ 2.67 µM).

For the molecule `O=C(N/N=C/C=C(c1ccccc1)c1ccccc1)c1ccncc1` [Sample ID 132532], the MIC in [1] (setting [3]) was 0.1 µg/mL (≈ 0.305 µM); with M. tuberculosis Erdman it was 0.1 µg/mL (≈ 0.305 µM); in the test on M. tuberculosis EMB-R, over 3.2 µg/mL; with M. tuberculosis ETA-R it was 1.6 µg/mL (≈ 4.89 µM); with M. avium (ATCC 25291) (setting [4]) it was over 3.2 µg/mL. In addition, in test [1] (Bactec), the “MIC (ug/mg)” value stood at 0.1 µg/mL (≈ 0.305 µM).

Take `CCOC(=O)/C(CCc1ccccc1)=N\NC(=O)c1ccncc1` [Sample ID 132358]: the MIC in [1] (setting [3]) is 0.1 µg/mL (≈ 0.307 µM); in the test on M. tuberculosis Erdman, 0.1 µg/mL (≈ 0.307 µM); in the test with M. tuberculosis EMB-R, over 3.2 µg/mL; in the test with M. tuberculosis ETA-R it was 0.8 µg/mL (≈ 2.46 µM); with M. avium (ATCC 25291) (setting [4]), over 3.2 µg/mL. Further, in test [1] (Bactec), the “MIC (ug/mg)” value turned out to be 0.1 µg/mL (≈ 0.307 µM).

What is called IC50 is the concentration at which inhibition is half-maximal. A lower IC50 goes with higher potency. As a reminder, the EC90 is the point of the concentration-response curve where the effect stands at 90%. A lower EC90 goes with an effect from little substance. What is called EC99 is the concentration at which the effect reaches the 99% level. Lower therefore signals an effect from little substance. Regarding `NNC(=O)c1ccncc1` [INH, isonicotinic acid hydrazide, reference compound], the IC50 in the test with VERO cells was over 1000 µg/mL. In test [2], this molecule yielded an EC90 of 0.21 µg/mL (≈ 1.53 µM) and an EC99 of over 0.4 µg/mL. Also, in the test with M. kansasii swank, the MIC was determined as 1 µg/mL (≈ 7.29 µM).

In test [1] (M. tuberculosis assay, Alamar, Tables 7 and 9), `CCC/C(CC(=O)OCC)=N/NC(=O)c1ccncc1` [Sample ID 101702] registered an MIC of 0.39 µg/mL (≈ 1.41 µM). Also, the MBC in the test on M. tuberculosis H37Rv is at least 0.19 µg/mL; in the test on M. tuberculosis RMP-R, 0.39 µg/mL (≈ 1.41 µM); in the test on M. tuberculosis INH-r it was over 12.5 µg/mL.
